Calls of active or inactive are those of the source. How the calls were made is not given here.
Tested on: rodent carcinogenicity bioassays, tumor incidence
Assay: CCRIS carcinogenicity studies
How it was run: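 Archive of carcinogenicity, mutagenicity, tumor promotion and tumor inhibition results drawn from journals, NCI reports and other sources, expert-reviewed; covers 1985-2011 and is no longer updated.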

`CCCN(CCC)S(=O)(=O)c1ccc(C(=O)O)cc1` was tested, and the carcinogen call (Species: MOUSE, Strain/Sex: B6C3F1/FEMALE, Route: GAVAGE, Dose: 0, 100, 400 MG/KG IN CORN OIL 5 D/WK FOR 103 WK (STUDY DURATION: 105 WK), Dose: 0, 100, 400 MG/KG IN CORN OIL 5 D/WK FOR 103 WK (STUDY DURATION: 105 WK), Tumor Site: Type of Lesion: LIVER: HEPATOCELLULAR ADENOMA OR CARCINOMA) was “active; positive”, the carcinogen call (Species: MOUSE, Strain/Sex: B6C3F1/MALE, Route: GAVAGE, Dose: 0, 100, 400 MG/KG IN CORN OIL 5 D/WK FOR 103 WK (STUDY DURATION: 105 WK), Dose: 0, 100, 400 MG/KG IN CORN OIL 5 D/WK FOR 103 WK (STUDY DURATION: 105 WK)) was “inactive; negative” and the carcinogen call (Species: RAT, Strain/Sex: F344/FEMALE, Route: GAVAGE, Dose: 0, 100, 400 MG/KG IN CORN OIL 5 D/WK FOR 103 WK (STUDY DURATION: 104 WK), Dose: 0, 100, 400 MG/KG IN CORN OIL 5 D/WK FOR 103 WK (STUDY DURATION: 104 WK)) was “inactive; negative”. For the same molecule, the carcinogen call (Species: RAT, Strain/Sex: F344/MALE, Route: GAVAGE, Dose: 0, 100, 400 MG/KG IN CORN OIL 5 D/WK FOR 103 WK (STUDY DURATION: 104 WK), Dose: 0, 100, 400 MG/KG IN CORN OIL 5 D/WK FOR 103 WK (STUDY DURATION: 104 WK)) was “inactive; negative”.
`CCCCCN(N=O)C(=O)OCC` was tested, and the carcinogen call (Species: RAT, Strain/Sex: DONRYU/FEMALE, Route: ORAL, Dose: 0, 100, 200, 400 PPM IN DRINKING WATER FOR 60 WK, Dose: 0, 100, 200, 400 PPM IN DRINKING WATER FOR 60 WK, Tumor Site: Type of Lesion: ORAL CAVITY: PAPILLOMA, CARCINOMA, ESOPHAGUS: PAPILLOMA, CARCINOMA, FORESTOMACH: PAPILLOMA, CARCINOMA, Tumor Site: Type of Lesion: ORAL CAVITY: PAPILLOMA, CARCINOMA, ESOPHAGUS: PAPILLOMA, CARCINOMA, FORESTOMACH: PAPILLOMA, CARCINOMA) was “active; positive”.
In the case of `NC=O`, the carcinogen call (Species: Mouse, Strain/Sex: B5C3F1/Female, Route: Oral, Dose: 0, 20, 40, 80 mg/kg in deioninzed water, by gavage, 5 d/wk for 104-105 wk, Tumor Site: Type of Lesion: Liver: hepatocellular adenoma and carcinoma (combined)) is reported as “active; positive, authors described results as equivocal evidence of carcinogenic activi”, the carcinogen call (Species: Mouse, Strain/Sex: B6C3F1/Male, Route: Oral, Dose: 0, 20, 40, 80 mg/kg in deioninzed water, by gavage, 5 d/wk for 104-105 wk, Tumor Site: Type of Lesion: Liver: hemangiosarcoma) is reported as “active; positive, authors described results as clear evidence of carcinogenic activity” and the carcinogen call (Species: Rat, Strain/Sex: F344/N/Female, Route: Oral, Dose: 0, 20, 40, 80 mg/kg in deioninzed water, by gavage, 5 d/wk for 104-105 wk) is reported as “inactive; negative”. For the same molecule, the carcinogen call (Species: Rat, Strain/Sex: F344/N/Male, Route: Oral, Dose: 0, 20, 40, 80 mg/kg in deioninzed water, by gavage, 5 d/wk for 104-105 wk) was “inactive; negative”.
For `Clc1ccc(C(c2ccc(Cl)cc2)C(Cl)(Cl)Cl)cc1`, the carcinogen call (Species: MOUSE, Strain/Sex: B6AKF1/MALE,FEMALE, Route: GAVAGE/ORAL, Dose: 46.4 MG/KG FROM D 7-28 OF LIFE THEN 140 PPM IN DIET, Tumor Site: Type of Lesion: LIVER: HEPATOMA) was “active; positive”, the carcinogen call (Species: MOUSE, Strain/Sex: B6C3F1/FEMALE, Route: ORAL, Dose: 0, 87, 175 PPM IN DIET, TWA, Dose: 0, 87, 175 PPM IN DIET, TWA) was “inactive; negative” and the carcinogen call (Species: MOUSE, Strain/Sex: B6C3F1/MALE,FEMALE, Route: GAVAGE/ORAL, Dose: 46.4 MG/KG FROM D 7-28 OF LIFE THEN 140 PPM IN DIET, Tumor Site: Type of Lesion: LIVER: HEPATOMA) was “active; positive”. The carcinogen call (Species: MOUSE, Strain/Sex: B6C3F1/MALE, Route: ORAL, Dose: 0, 22, 90 PPM IN DIET, TWA, Dose: 0, 22, 90 PPM IN DIET, TWA) was “inactive; negative”, the carcinogen call (Species: MOUSE, Strain/Sex: BALB/MALE, Route: ORAL, Dose: 0, 175 PPM IN ACETONE ADDED TO DIET FOR 8 WK THEN BY 125 PPM FOR 8 WK AND 100 PPM FOR 59 WK (STUDY DURATION: 75 WK), Tumor Site: Type of Lesion: LIVER: HEPATOCELLULAR ADENOMA, HEPATOCELLULAR CARCINOMA) was “active; positive” and the carcinogen call (Species: MOUSE, Strain/Sex: CF-1/MALE,FEMALE, Route: DIET, Dose: 0, 50, 100 PPM FOR 2 YR, Tumor Site: Type of Lesion: LIVER) was “active; positive”. For the same molecule, the carcinogen call (Species: MOUSE, Strain/Sex: CF-1/MALE,FEMALE, Route: DIET, Dose: 100 PPM FOR 110 WK, Tumor Site: Type of Lesion: LIVER) was “active; positive”, the carcinogen call (Species: RAT, Route: ORAL, Tumor Site: Type of Lesion: LIVER) was “active; positive” and the carcinogen call (Species: RAT, Strain/Sex: OSBORNE-MENDEL/FEMALE, Route: ORAL, Dose: 0, 210, 420 PPM IN DIET, TWA, Dose: 0, 210, 420 PPM IN DIET, TWA) was “inactive; negative”. For the same molecule, the carcinogen call (Species: RAT, Strain/Sex: OSBORNE-MENDEL/MALE, Route: ORAL, Dose: 0, 321, 642 PPM IN DIET, TWA, Dose: 0, 321, 642 PPM IN DIET, TWA) was “inactive; negative”.
In the case of `Nc1ccc(/C=C/c2ccccc2)cc1`, the carcinogen call (Species: RAT, Strain/Sex: HOLTZMAN/FEMALE, Route: ORAL, Dose: 0, 0.0038% IN DIET FOR 13 WK BEGINNING AT WEANING (STUDY DURATION: 40 WK), Tumor Site: Type of Lesion: EAR DUCT GLAND: CARCINOMA) is reported as “active; positive” and the carcinogen call (Species: RAT, Strain/Sex: HOLTZMAN/FEMALE, Route: SUBCUTANEOUS, Dose: 0. 5.3 UMOL SUSPENDED IN 0.2 ML TRICAPRYLIN 1/WK FOR 5 WK (STUDY DURATION: 10 MO), Tumor Site: Type of Lesion: MAMMARY GLAND: CARCINOMA) is reported as “active; positive”.
For `O[C@H]1C=Cc2c(cc3ccc4cccc5ccc2c3c45)[C@@H]1O`, the carcinogen call (Species: FISH, Strain/Sex: RAINBOW TROUT/MALE,FEMALE, Route: INJECTION, Dose: 0, 0.01, 1 UG INJECTED INTO NEWLY HATCHED SAC-FRY ONCE (STUDY DURATION: 9 MO), Dose: 0, 0.01, 1 UG INJECTED INTO NEWLY HATCHED SAC-FRY ONCE (STUDY DURATION: 9 MO), Tumor Site: Type of Lesion: LIVER: TUMOR) was “active; positive”, the carcinogen call (Species: FISH, Strain/Sex: RAINBOW TROUT/MALE,FEMALE, Route: INJECTION, Dose: 0, 0.5, 2, 5 UG INJECTED INTO NEWLY HATCHED SAC-FRY (STUDY DURATION: 9 MO), Dose: 0, 0.5, 2, 5 UG INJECTED INTO NEWLY HATCHED SAC-FRY (STUDY DURATION: 9 MO), Tumor Site: Type of Lesion: LIVER: TUMOR) was “active; positive” and the carcinogen call (Species: MOUSE, Strain/Sex: C57BL/FEMALE, Route: DERMAL, Dose: 0.15, 0.30 UMOL IN ACETONE/NH4OH (1000:1) EVERY 2 WK FOR 60 WK, Tumor Site: Type of Lesion: INTEGUMENTARY SYSTEM (SKIN): SQUAMOUS CELL CARCINOMA) was “active; positive”. For the same molecule, the carcinogen call (Species: MOUSE, Strain/Sex: SWISS/MALE,FEMALE, Route: INTRAPERITONEAL, Dose: 200 NMOL ON FIRST D OF LIFE, 400 NMOL ON D 8, 800 NMOL ON D 15, Tumor Site: Type of Lesion: LUNG: ADENOMA, HEMATOPOIETIC SYSTEM (LEUKEMIA), LYMPHATIC SYSTEM: MALIGNANT LYMPHOMA, Tumor Site: Type of Lesion: LUNG: ADENOMA, HEMATOPOIETIC SYSTEM (LEUKEMIA), LYMPHATIC SYSTEM: MALIGNANT LYMPHOMA) was “active; positive”.
With `CCCCCCCCN(C)N=O` the carcinogen call (Species: HAMSTER, Strain/Sex: SYRIAN/FEMALE, Route: GAVAGE, Dose: 0, 7.4 MG/KG 1/WK FOR 40 WK (TOTAL DOSE: 0; 2.1 MMOL) (STUDY DURATION: LIFETIME), Dose: 0, 7.4 MG/KG 1/WK FOR 40 WK (TOTAL DOSE: 0; 2.1 MMOL) (STUDY DURATION: LIFETIME), Tumor Site: Type of Lesion: LIVER: HEPATOCELLULAR ADENOMA, LUNG: ALVEOLAR/BRONCHIAL ADENOMA, NASAL MUCOSA: ADENOMA, URINARY BLADDER: SARCOMA, UNDIFF, Tumor Site: Type of Lesion: LIVER: HEPATOCELLULAR ADENOMA, LUNG: ALVEOLAR/BRONCHIAL ADENOMA, NASAL MUCOSA: ADENOMA, URINARY BLADDER: SARCOMA, UNDIFF) was “active; positive”, the carcinogen call (Species: HAMSTER, Strain/Sex: SYRIAN/MALE, Route: GAVAGE, Dose: 0, 7.4 MG/KG 1/WK FOR 40 WK (TOTAL DOSE: 0; 2.1 MMOL) (STUDY DURATION: LIFETIME), Dose: 0, 7.4 MG/KG 1/WK FOR 40 WK (TOTAL DOSE: 0; 2.1 MMOL) (STUDY DURATION: LIFETIME), Tumor Site: Type of Lesion: LIVER: HEPATOCELLULAR ADENOMA, CHOLANGIOMA, HEMANGIOSARCOMA, LUNG: ALVEOLAR/ BRONCHIAL ADENOMA, NASAL MUCOSA: ADENOMA, U, Tumor Site: Type of Lesion: LIVER: HEPATOCELLULAR ADENOMA, CHOLANGIOMA, HEMANGIOSARCOMA, LUNG: ALVEOLAR/ BRONCHIAL ADENOMA, NASAL MUCOSA: ADENOMA, U) was “active; positive” and the carcinogen call (Species: RAT, Strain/Sex: F344/MALE, Route: GAVAGE, Dose: 0, 93 MG/ML IN CORN OIL 2/WK FOR 30 WK, STUDY DURATION: 50 WK, Dose: 0, 93 MG/ML IN CORN OIL 2/WK FOR 30 WK, STUDY DURATION: 50 WK, Tumor Site: Type of Lesion: LUNG: ADENOCARCINOMA, ADENOMA, NASAL CAVITY: CARCINOMA, LIVER: HEPATOCELLULAR TUMOR, BLADDER, Tumor Site: Type of Lesion: LUNG: ADENOCARCINOMA, ADENOMA, NASAL CAVITY: CARCINOMA, LIVER: HEPATOCELLULAR TUMOR, BLADDER) was “active; positive”.
